Measurements taken from patent publication US12091402B2 (Avilar Therapeutics, Inc., priority 2021, dated 2024).
Like-named read-outs stand apart in the source and are kept apart here.

Tests used:
IgG-AF488 = experiment: Western blot of IgG-AF488 degradation (Example 5, FIG. 10); format: cell-based
DNP-IgG = experiment: Colocalization imaging of DNP-IgG uptake (Example 4, FIG. 11); format: cell-based
[1] = target: T1, ASGPR receptor on the cell surface (HepG2 cells) (Homo sapiens, UniProt P07306); experiment: Ternary complex formation assay (flow cytometry, HepG2); format: cell-based
T1 construct: host or cells: HepG2
T1 sequence (P07306 1-291): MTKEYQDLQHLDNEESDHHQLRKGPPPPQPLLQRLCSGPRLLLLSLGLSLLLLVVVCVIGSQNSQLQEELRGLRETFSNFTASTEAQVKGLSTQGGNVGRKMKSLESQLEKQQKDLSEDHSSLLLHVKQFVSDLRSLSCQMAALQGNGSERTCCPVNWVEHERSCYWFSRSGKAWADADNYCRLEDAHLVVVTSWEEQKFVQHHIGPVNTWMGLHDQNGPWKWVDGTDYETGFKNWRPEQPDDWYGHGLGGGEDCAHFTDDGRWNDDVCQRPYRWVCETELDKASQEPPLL
T1 sequence (P07307 1-311 partner): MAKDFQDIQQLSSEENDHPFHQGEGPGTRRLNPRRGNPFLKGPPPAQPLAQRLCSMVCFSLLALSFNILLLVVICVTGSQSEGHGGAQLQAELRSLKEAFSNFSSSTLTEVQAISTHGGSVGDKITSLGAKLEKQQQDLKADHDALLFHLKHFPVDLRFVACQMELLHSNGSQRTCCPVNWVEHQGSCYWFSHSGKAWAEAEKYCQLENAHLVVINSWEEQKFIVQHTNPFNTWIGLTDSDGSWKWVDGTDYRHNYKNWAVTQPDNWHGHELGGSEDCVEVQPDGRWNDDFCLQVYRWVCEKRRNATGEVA
How it was run: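 HepG2 cells (1×10^5/well) incubated 1 h at 4 °C with 100 nM AF488-labeled anti-human IgG plus serial IgG-based degrader, or 100 nM AF488 rabbit anti-DNP plus serial DNP-based degrader. After washing, cell-associated AF488 MFI read by flow cytometry; peak MFI marks optimal degrader concentration for ternary complex.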

HepG2 cells [2] = experiment: Cellular uptake assay of AF488-labeled antibody (HepG2); format: cell-based
How it was run: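 Ternary-complex uptake via ASGPR was imaged after fixation: the read-out is AF488-positive HepG2 cells divided by total DAPI nuclei. Degrader dilutions (IgG- or DNP-based, 0.1% DMSO final) were co-incubated 6 h at 37° C. with 100 nM of the corresponding fluorescent antibody.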

HepG2 cells [3] = experiment: Cellular co-localization study (LAMP2 immunofluorescence); format: cell-based; details: 100 nM compound, 100 nM AF488-labeled DNP antibodies, 8 hours, FIG. 4
Protocol: To confirm that DNP-IgG was trafficked to the lysosome following uptake by the HepG2 cells, cells were stained with the lysosomal marker LAMP2, and the subcellular location of AF488-labeled DNP-IgG was visualized by immunofluorescence microscopy.
HepG2 cells were plated in DMEM supplemented with 10% FBS incubated for approximately 18 hours at 37° C./5% CO2. AF488-labeled DNP antibodies (100 nM) and either DMSO or 100 nM of Compound 28 were added to the cells and incubated at 37° C. for an additional 8 hours. Cells were fixed with 100% methanol for 20 minutes at −20° C. followed by incubation with blocking buffer (1×PBS containing 5% normal goat serum and 0.1% Triton X-100) for 1 hour at room temperature. Cells were stained with anti-LAMP2 (Abcam) at 4° C. for about 18 hours followed by treatment with goat anti-mouse IgG-AF647 for 2 hours at room temperature. Nuclei were stained with DAPI. Pictures were taken on a Leica fluorescence microscope at 40× magnification.

HepG2 cells [4] = experiment: Cellular degradation assay of anti-DNP-AF488 antibody; format: cell-based; details: 0.2 μM compound, 1 μM anti-DNP-AF488, 16 hours uptake then wash, FIG. 3
Protocol: To observe degradation of IgG in cells, a mixture of fluorescently labeled DNP antibody and compound are added to HepG2 cells and cellular uptake occurs over 16 hours. Cells are then washed to remove extracellular antibody and compound and samples are taken at various time points after uptake to detect levels of intact and/or proteolytic fragments of the antibody heavy and light chains over time as a kinetic measurement of antibody degradation.
HepG2 cells were seeded in DMEM supplemented with 10% FBS into a 12-well plate at a final amount of 20,000 cells per well. After about 18 hours incubation, 1 μM anti-DNP-AF488 antibody and/or 0.2 μM Compound 28 was added to the cells and incubated for 16 hours. The next day, cells were washed once with cell culture media and replaced with cell culture medium lacking anti-DNP-AF488 antibody or Compound 28 and incubated for 0, 1, 2, 4, and 8 hours, respectively. Cells were washed and lysed in RIPA buffer with protease inhibitors. Cell lysates were separated by SDS-PAGE and the fluorescent anti-DNP-AF488 antibody degradation products were visualized by the iBright 1500 gel reader (ThermoFisher). Intracellular heavy and light chains of DNP-IgG are observed after 16 hours of uptake into HepG2 cells. […]

ASGPR = target: T2, ASGPR (Homo sapiens, UniProt P07306); experiment: Affinity to ASGPR by surface plasmon resonance (SPR)
T2 sequence (P07306 1-291): T1 sequence (P07306 1-291)

TNF [5] = target: T3, TNF (Homo sapiens, UniProt P01375); experiment: Western blot of TNF degradation over time (Example 11, FIG. 24); format: cell-based; details: 0.5 μM compound
T3 sequence (P01375 77-233 limits assumed): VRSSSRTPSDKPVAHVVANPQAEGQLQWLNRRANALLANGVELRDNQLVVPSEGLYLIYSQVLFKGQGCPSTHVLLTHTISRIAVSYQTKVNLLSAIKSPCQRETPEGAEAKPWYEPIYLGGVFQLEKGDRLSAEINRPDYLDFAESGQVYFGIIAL

TNF [6] = target: T3, TNF; experiment: Western blot of ASGPR mediated uptake of TNF (Example 12, FIG. 25); format: cell-based
TNFα = TNFα (Homo sapiens, UniProt P01375); experiment: TNF FP assay; format: binding; details: TNF 20 nM, 25° C., 2 hours; read-out: TNFα FP IC50 KD
Sequence of TNFα (P01375 77-233 limits assumed): as above
Protocol: TNF (20 nM) and Compound 36 in 47 mM HEPES pH 6.5, 47 mM NaCl, 0.9 mM EDTA, 0.007% Triton X-100 were incubated at 25° C. for 2 hours. Fluorescence data was read with an Envision and plotted versus Compound 36 concentration and fit to a single-site binding model. This assay was used to calculate the FP data in Table 7.

IgG = experiment: Affinity to IgG by surface plasmon resonance (SPR); format: binding
Protocol: Immobilization levels ranging from 1000-1300 resonance units (RU) are obtained. The running buffer is 10 mM HEPES, pH 7.4, 400 mM NaCl, 0.005% P20, […].

[7] = HepG2 cells, 100 nM AF488-labeled antibody, 37° C. for 6 hours, class symbols, read-out: Uptake Assay EC50
[8] = HepG2 cells, ternary complex formation, read-out: TCF EC50
[9] = HepG2 cells, read-out: Uptake EC50

| Kd (IgG; SPR, read-out: IgG KD) | EC50 [1, 8] | EC50 (HepG2 cells [2]; [9]) | SMILES | Kd (ASGPR) | EC50 [1] | EC50 (HepG2 cells [2]; [7]) | further results |
| --- | --- | --- | --- | --- | --- | --- | --- |
|  |  |  | O=C(CCOCC(COCCC(=O)NCCOCCOCCOCCOC[C@H]1OC[C@@H](Nc2nc(Cl)ns2)[C@@H](O)[C@H]1O)NC(=O)COCCOCCOCCNc1ccc([N+](=O)[O-])cc1[N+](=O)[O-])NCCOCCOCCOCCOC[C@H]1OC[C@@H](Nc2nc(Cl)ns2)[C@@H](O)[C@H]1O [Compound 28, 3,3′-((2-(2-(2-(2-(2-((2,4-dinitrophenyl)amino)ethoxy)ethoxy)ethoxy)acetamido)propane-1,3-diyl)bis(oxy))bis(N-(1-((2R,3R,4R,5R)-5-((3-chloro-1,2,4-thiadiazol-5-yl)amino)-3,4-dihydroxytetrahydro-2H-pyran-2-yl)-2,5,8,11-tetraoxatridecan-13-yl)propanamide)] | < 0.1 µM |  |  | degradation of IgG-AF488 (western blot) (IgG-AF488): degradation of IgG-AF488; uptake of DNP-IgG (colocalization image) (DNP-IgG): uptake of DNP-IgG; EC50 ([1]; EC50, half-maximal concentration with respect to the peak MFI (ternary complex formation), AF488-labeled DNP antibody, HepG2 cells, FIG. 1): 4.7 nM; EC50 ([1]; Ternary Complex EC50 (nM), HepG2 cells, 100 nM AF488-labeled antibody, 1 hour at 4° C., class symbols): < 100 nM; EC50, half-maximal concentration with respect to the peak ratio of antibody-positive cells (cellular uptake) (HepG2 cells [2]; DNP-antibody, HepG2 cells, FIG. 2): 0.0038 µM; EC50 (HepG2 cells [2]; Homo sapiens, HepG2, 6 h, read-out: Uptake Assay EC50 (nM)): < 100 nM; Uptake of DNP-IgG and co-localization with lysosomal marker LAMP2 (HepG2 cells [3]): DNP-IgG was taken up into the cells and co-localized with the lysosomal marker LAMP2; Loss of intact heavy chain of DNP-IgG observed after (HepG2 cells [4]): 1 h; Loss of intact light chain of DNP-IgG observed after (HepG2 cells [4]): 8 h |
|  |  |  | O=C(CCOCC(COCCC(=O)NCCOCCOCCOCCOC[C@H]1OC[C@H](Nc2nccc(C(F)(F)F)n2)[C@@H](O)[C@H]1O)NC(=O)COCCOCCOCC(=O)N1CCN(Cc2ccc(-c3c[nH]c4ccncc34)c(OCCc3ccc(-c4cccc5ccncc45)cc3)c2)CC1)NCCOCCOCCOCCOC[C@H]1OC[C@H](Nc2nccc(C(F)(F)F)n2)[C@@H](O)[C@H]1O [Compound 36, 3,3′-((2-(2-(2-(2-(2-(4-(3-(4-(isoquinolin-8-yl)phenethoxy)-4-(1H-pyrrolo[3,2-c]pyridin-3-yl)benzyl)piperazin-1-yl)-2-oxoethoxy)ethoxy)ethoxy)acetamido)propane-1,3-diyl)bis(oxy))bis(N-(1-((2R,3R,4R,5S)-3,4-dihydroxy-5-((4-(trifluoromethyl)pyrimidin-2-yl)amino)tetrahydro-2H-pyran-2-yl)-2,5,8,11-tetraoxatridecan-13-yl)propanamide)] | < 0.001 µM |  |  | degradation of TNF over time (western blot) (TNF [5]): degradation of TNF; ASGPR mediated uptake of TNF (western blot) (TNF [6]): ASGPR mediated uptake of TNF; IC50 (TNFα): < 0.5 µM; ASGPR kd (ASGPR; Table 7): <0.01 s⁻¹ |
|  |  |  | CC(C)C[C@@H]1NC(=O)[C@H](Cc2c[nH]cn2)NC(=O)[C@H](Cc2c[nH]c3ccccc23)NC(=O)[C@H](C)NC(=O)[C@@H]2CSSC[C@H](NC(=O)[C@H](Cc3c[nH]c4ccccc34)NC(=O)[C@H](C(C)C)NC(=O)[C@H](CC(C)C)NC(=O)[C@H](CCC(=O)O)NC(=O)CNC1=O)C(=O)N[C@@H]([C@@H](C)O)C(=O)N1CCC[C@@H]1C(=O)N1C[C@@H](NC(=O)CCOCCNC(=O)CCCc3cn(CCCCCC(=O)NC(COCCC(=O)NCCOCCOCCOCCOC[C@H]4OC[C@H](Nc5nccc(C(F)(F)F)n5)[C@@H](O)[C@H]4O)COCCC(=O)NCCOCCOCCOCCOC[C@H]4OC[C@H](Nc5nccc(C(F)(F)F)n5)[C@@H](O)[C@H]4O)nn3)C[C@H]1C(=O)N[C@@H](CC(=O)O)C(=O)N2 [Compound 6] | < 0.1 µM | < 100 nM | < 100 nM | Kd (IgG; Biacore 8K, 25° C., IgG on CM5 chip, read-out: IgG SPR Binding Kd): < 0.1 µM |
| < 0.1 µM | > 1000 nM | > 1000 nM | CC(C)C[C@@H]1NC(=O)[C@H](Cc2cnc[nH]2)NC(=O)[C@H](Cc2c[nH]c3ccccc23)NC(=O)[C@H](C)NC(=O)[C@@H]2CSSC[C@H](NC(=O)[C@H](Cc3c[nH]c4ccccc34)NC(=O)[C@H](C(C)C)NC(=O)[C@H](CC(C)C)NC(=O)[C@H](CCC(=O)O)NC(=O)CNC1=O)C(=O)N[C@@H]([C@@H](C)O)C(=O)N1CCC[C@@H]1C(=O)N1C[C@@H](NC(=O)c3ccc(C(=O)NC[C@H]4OC[C@H](Nc5cncc(C(F)(F)F)n5)[C@@H](O)[C@H]4O)cc3)C[C@H]1C(=O)N[C@@H](CC(=O)O)C(=O)N2 [Compound 67] | < 0.1 µM |  |  |  |
| < 0.1 µM | < 100 nM | < 100 nM | CC(C)C[C@@H]1NC(=O)[C@H](Cc2c[nH]cn2)NC(=O)[C@H](Cc2c[nH]c3ccccc23)NC(=O)[C@H](C)NC(=O)[C@@H]2CSSC[C@H](NC(=O)[C@H](Cc3c[nH]c4ccccc34)NC(=O)[C@H](C(C)C)NC(=O)[C@H](CC(C)C)NC(=O)[C@H](CCC(=O)O)NC(=O)CNC1=O)C(=O)N[C@@H]([C@@H](C)O)C(=O)N1CCC[C@@H]1C(=O)N1C[C@@H](NC(=O)CCOCCOCCOCCOCCNC(=O)CCCc3cn(CCCCCC(=O)NC(COCCC(=O)NCCOCCOCCOCCOC[C@@]45CO[C@@H](O4)[C@H](NC(=O)C(F)(F)F)[C@@H](O)[C@H]5O)COCCC(=O)NCCOCCOCCOCCOC[C@@]45CO[C@@H](O4)[C@H](NC(=O)C(F)(F)F)[C@@H](O)[C@H]5O)nn3)C[C@H]1C(=O)N[C@@H](CC(=O)O)C(=O)N2 [Compound 94] | < 0.1 µM |  |  |  |

| SMILES | Kd (IgG; SPR, read-out: IgG KD) | EC50 [1, 8] | EC50 (HepG2 cells [2]; [9]) | Kd (ASGPR) | EC50 [1] | EC50 (HepG2 cells [2]; [7]) | further results |
| --- | --- | --- | --- | --- | --- | --- | --- |
| CC(C)C[C@@H]1NC(=O)[C@H](Cc2cnc[nH]2)NC(=O)[C@H](Cc2c[nH]c3ccccc23)NC(=O)[C@H](C)NC(=O)[C@@H]2CSSC[C@H](NC(=O)[C@H](Cc3c[nH]c4ccccc34)NC(=O)[C@H](C(C)C)NC(=O)[C@H](CC(C)C)NC(=O)[C@H](CCC(=O)O)NC(=O)CNC1=O)C(=O)N[C@@H]([C@@H](C)O)C(=O)N1CCC[C@@H]1C(=O)N1C[C@@H](NC(=O)COCCOCC(=O)NC[C@H]3OC[C@H](Nc4cncc(C(F)(F)F)n4)[C@@H](O)[C@H]3O)C[C@H]1C(=O)N[C@@H](CC(=O)O)C(=O)N2 [Compound 42] | < 0.1 µM |  | < 100 nM | < 0.1 µM | < 100 nM | < 100 nM | EC50 ([1]; read-out: Ternary Complex EC50): < 100 nM |
